Patent publication US10597388B2, “Pyridazinone herbicides” (FMC CORPORATION, priority 2014, dated 2020)

Tests used:
Assay in all cases: Test D controlled growth environment herbicide test, pre- and postemergence
Format in all cases: in vivo
[1] = test system: barley, spring (spring barley, Hordeum vulgare)
In short: (§1)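 Pre-emergence: seeds sown in silt loam soil were sprayed with compound in a non-phytotoxic solvent mix containing surfactant. Post-emergence: plants at 2 to 18 cm (1- to 4-leaf stage) in peat moss/vermiculite medium got the same formulation. Visual 0–100 rating versus controls after 14 to 21 d.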

[2] = test system: windgrass (Apera spica-venti)
In short: as §1

[3] = test system: oat, wild (wild oat, Avena fatua)
In short: as §1

[4] = test system: radish, wild (wild radish, Raphanus raphanistrum)
In short: as §1

[5] = test system: wheat, spring (spring wheat, Triticum aestivum)
In short: as §1

[6] = test system: ryegrass, Italian (Italian ryegrass, Lolium multiflorum)
In short: as §1

[7] = test system: field poppy (Papaver rhoeas)
In short: as §1

[8] = test system: Russian thistle (Salsola kali)
In short: as §1

[9] = test system: buckwheat, wild (wild buckwheat, Polygonum convolvulus)
In short: as §1

[10] = test system: deadnettle (henbit deadnettle, Lamium amplexicaule)
In short: as §1

[11] = test system: oilseed rape (Brassica napus)
In short: as §1

[12] = test system: canarygrass (Phalaris minor)
In short: as §1

[13] = test system: speedwell (bird's-eye speedwell, Veronica persica)
In short: as §1

[14] = Postemergence, 31 g ai/ha, scale 0 to 100 (0 no effect, 100 complete control)
[15] = Postemergence, 125 g ai/ha, visual rating on scale 0 (no effect) to 100 (complete control), 14 to 21 d
[16] = Postemergence, 250 g ai/ha, scale 0 to 100 (0 no effect, 100 complete control)
[17] = Preemergence, 62 g ai/ha, scale 0 to 100 (0 no effect, 100 complete control)
[18] = Preemergence, 250 g ai/ha, scale 0 to 100, 0 no effect, 100 complete control
[19] = postemergence, 62 g ai/ha, scale 0 to 100, 0 no effect, 100 complete control
[20] = Preemergence, 125 g ai/ha, scale 0 to 100 (0 no effect, 100 complete control)

In the case of Cc1ccc2sc(C)c(-c3c(OC(=O)OC(C)C)c(C)nn(C)c3=O)c2c1 [Compound 66], the “Barley, Spring plant response rating” value [1, 14] was 0, the “Plant response rating, Barley, Spring” value [1, 15] was 5 and the “Plant response rating, Barley, Spring” value [1, 16] was 15. For the same molecule, the “Plant response rating (scale of 0 to 100), Barley, Spring” value ([1]; Preemergence, 31 g ai/ha) was 0, the “Plant response rating, Barley, Spring” value [1, 17] was 0 and the “Plant response rating, Barley, Spring” value [1, 18] was 10. The “Plant response rating, Barley, Spring” value [1, 19] was 0, the “Windgrass plant response rating” value [2, 14] was 75 and the “Plant response rating, Windgrass” value [2, 15] was 85. The “Plant response rating, Windgrass” value [2, 16] was 100, the “Plant response rating (scale of 0 to 100), Windgrass” value ([2]; Preemergence, 31 g ai/ha) was 70 and the “Plant response rating, Windgrass” value [2, 17] was 75. For the same molecule, the “Plant response rating, Windgrass” value [2, 20] was 85, the “Plant response rating, Windgrass” value [2, 18] was 85 and the “Plant response rating, Windgrass” value [2, 19] was 80. For the same molecule, the “Oat, Wild plant response rating” value [3, 14] was 85, the “Plant response rating, Oat, Wild” value [3, 15] was 100 and the “Plant response rating, Oat, Wild” value [3, 16] was 100. The “Plant response rating (scale of 0 to 100), Oat, Wild” value ([3]; Preemergence, 31 g ai/ha) was 75, the “Plant response rating, Oat, Wild” value [3, 17] was 85 and the “Plant response rating, Oat, Wild” value [3, 20] was 85. The “Plant response rating, Oat, Wild” value [3, 18] was 90, the “Plant response rating, Oat, Wild” value [3, 19] was 95 and the “Radish, Wild plant response rating” value [4, 14] was 5. The “Plant response rating, Radish, Wild” value [4, 15] was 30, the “Plant response rating, Radish, Wild” value [4, 16] was 45 and the “Plant response rating (scale of 0 to 100), Radish, Wild” value ([4]; Preemergence, 31 g ai/ha) was 30. For the same molecule, the “Plant response rating, Radish, Wild” value [4, 17] was 70, the “Plant response rating, Radish, Wild” value [4, 20] was 75 and the “Plant response rating, Radish, Wild” value [4, 18] was 70. The “Plant response rating, Radish, Wild” value [4, 19] was 25, the “Wheat, Spring plant response rating” value [5, 14] was 0 and the “Plant response rating, Wheat, Spring” value [5, 15] was 0. The “Plant response rating, Wheat, Spring” value [5, 16] was 5, the “Plant response rating (scale of 0 to 100), Wheat, Spring” value ([5]; Preemergence, 31 g ai/ha) was 0 and the “Plant response rating, Wheat, Spring” value [5, 17] was 0. For the same molecule, the “Plant response rating, Wheat, Spring” value [5, 20] was 5, the “Plant response rating, Wheat, Spring” value [5, 18] was 20 and the “Plant response rating, Wheat, Spring” value [5, 19] was 0. The “Ryegrass, Italian plant response rating” value [6, 14] was 85, the “Plant response rating, Ryegrass, Italian” value [6, 15] was 95 and the “Plant response rating, Ryegrass, Italian” value [6, 16] was 98. The “Plant response rating (scale of 0 to 100), Ryegrass, Italian” value ([6]; Preemergence, 31 g ai/ha) was 80, the “Plant response rating, Ryegrass, Italian” value [6, 17] was 85 and the “Plant response rating, Ryegrass, Italian” value [6, 20] was 90. The “Plant response rating, Ryegrass, Italian” value [6, 18] was 95, the “Plant response rating, Ryegrass, Italian” value [6, 19] was 95 and the “Field Poppy plant response rating” value [7, 14] was 70. For the same molecule, the “Plant response rating, Field Poppy” value [7, 15] was 95, the “Plant response rating, Field Poppy” value [7, 16] was 95 and the “Plant response rating (scale of 0 to 100), Field Poppy” value ([7]; Preemergence, 31 g ai/ha) was 100. For the same molecule, the “Plant response rating, Field Poppy” value [7, 17] was 100, the “Plant response rating, Field Poppy” value [7, 20] was 100 and the “Plant response rating, Field Poppy” value [7, 18] was 100. For the same molecule, the “Plant response rating, Field Poppy” value [7, 19] was 85, the “Russian Thistle plant response rating” value [8, 14] was 75 and the “Plant response rating, Russian Thistle” value [8, 15] was 75. For the same molecule, the “Plant response rating, Russian Thistle” value [8, 16] was 80, the “Plant response rating (scale of 0 to 100), Russian Thistle” value ([8]; Preemergence, 31 g ai/ha) was 0 and the “Plant response rating, Russian Thistle” value [8, 17] was 20. The “Plant response rating, Russian Thistle” value [8, 20] was 60, the “Plant response rating, Russian Thistle” value [8, 18] was 90 and the “Plant response rating, Russian Thistle” value [8, 19] was 80. The “Buckwheat, Wild plant response rating” value [9, 14] was 95, the “Plant response rating, Buckwheat, Wild” value [9, 15] was 100 and the “Plant response rating, Buckwheat, Wild” value [9, 16] was 100. For the same molecule, the “Plant response rating (scale of 0 to 100), Buckwheat, Wild” value ([9]; Preemergence, 31 g ai/ha) was 0, the “Plant response rating, Buckwheat, Wild” value [9, 17] was 0 and the “Plant response rating, Buckwheat, Wild” value [9, 20] was 0. The “Plant response rating, Buckwheat, Wild” value [9, 18] was 0, the “Plant response rating, Buckwheat, Wild” value [9, 19] was 100 and the “Deadnettle plant response rating” value [10, 14] was 15. The “Plant response rating, Deadnettle” value [10, 15] was 35, the “Plant response rating, Deadnettle” value [10, 16] was 40 and the “Plant response rating (scale of 0 to 100), Deadnettle” value ([10]; Preemergence, 31 g ai/ha) was 15. The “Plant response rating, Deadnettle” value [10, 17] was 40, the “Plant response rating, Deadnettle” value [10, 20] was 55 and the “Plant response rating, Deadnettle” value [10, 18] was 55. The “Plant response rating, Deadnettle” value [10, 19] was 15, the “Oilseed Rape plant response rating” value [11, 14] was 0 and the “Plant response rating, Oilseed Rape” value [11, 15] was 65. For the same molecule, the “Plant response rating, Oilseed Rape” value [11, 16] was 75, the “Plant response rating (scale of 0 to 100), Oilseed Rape” value ([11]; Preemergence, 31 g ai/ha) was 35 and the “Plant response rating, Oilseed Rape” value [11, 17] was 35. The “Plant response rating, Oilseed Rape” value [11, 20] was 35, the “Plant response rating, Oilseed Rape” value [11, 18] was 35 and the “Plant response rating, Oilseed Rape” value [11, 19] was 20. The “Canarygrass plant response rating” value [12, 14] was 55, the “Plant response rating, Canarygrass” value [12, 15] was 70 and the “Plant response rating, Canarygrass” value [12, 16] was 85. The “Plant response rating (scale of 0 to 100), Canarygrass” value ([12]; Preemergence, 31 g ai/ha) was 25, the “Plant response rating, Canarygrass” value [12, 17] was 80 and the “Plant response rating, Canarygrass” value [12, 20] was 85. The “Plant response rating, Canarygrass” value [12, 18] was 95, the “Plant response rating, Canarygrass” value [12, 19] was 65 and the “Speedwell plant response rating” value [13, 14] was 55. The “Plant response rating, Speedwell” value [13, 15] was 70, the “Plant response rating, Speedwell” value [13, 16] was 75 and the “Plant response rating (scale of 0 to 100), Speedwell” value ([13]; Preemergence, 31 g ai/ha) was 75. For the same molecule, the “Plant response rating, Speedwell” value [13, 17] was 100, the “Plant response rating, Speedwell” value [13, 20] was 100 and the “Plant response rating, Speedwell” value [13, 18] was 100. The “Plant response rating, Speedwell” value [13, 19] was 70.
